This passage reports IC50 results from patent US7626031B2, “Substituted 3-(diarylmethylene)indolin-2-ones and methods of their use” (Symphony Evolution, Inc., priority 2002, dated 2009).

One assay concerns the target Fyn (Homo sapiens, UniProt P06241). The assay is described as follows: Kinase assay, Fyn. The format is biochemical. The procedure: (§1) Kinase activity and compound inhibition are investigated using one or more assay formats. The ATP concentrations for each assay are selected to be close to the Michaelis-Menten constant (KM) for each individual kinase. Dose-response experiments are performed at 10 different inhibitor concentrations in a 384-well plate format. […] Exemplary kinase assays are described below. KDR Assay

Another assay has as its target Flt-1 (Homo sapiens, UniProt P17948). Briefly: Kinase assay, Flt-1 (33P-ATP incorporation or luciferase-coupled ATP consumption). The format is biochemical. To be noted: read-out: Flt1 IC50. Summed up: (§2)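 Kinase activity measured either by γ-33P ATP incorporation into immobilized substrate (MBP or pEY) with scintillation counting, or by luciferase-based ATP consumption with pEY. Enzyme 10 or 20 nM; ATP near each kinase's KM (e.g. 10 or 30 μM); 1 h at room temperature, 1% DMSO, 10-point dose-response.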

In a further assay the target is PDGFR alpha (Homo sapiens, UniProt P16234). The assay is described as follows: Kinase assay, PDGFR alpha (33P-ATP incorporation or luciferase-coupled ATP consumption). The assay is classed as biochemical. To be noted: read-out: PDGF-R-A IC50. Summed up:
as §2

Assay [1] deals with T1, KDR (baculovirus expressed human KDR kinase domain D807-V1356) (Homo sapiens, UniProt P35968).
T1 construct: human KDR kinase domain D807-V1356; host or cells: baculovirus expression system
The assay is described as follows: biochemical. Summed up: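 Luciferase-coupled chemiluminescence quantifies ATP left after a 4 h room-temperature reaction of KDR kinase domain (D807–V1356, baculovirus-expressed human). ATP set close to KM; inhibitors tested at 10 concentrations.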

Another assay has as its target c-Kit kinase (Homo sapiens, UniProt P10721). Briefly: c-Kit AlphaScreen kinase assay. The assay is classed as biochemical. How it is done:
as §1
c-Kit biochemical activity was assessed using AlphaScreen™ (Perkin Elmer) technology, described above. Test compounds, ATP, biotinylated poly(Glu, Tyr) and c-Kit kinase were combined in a volume of 20 μL in a 384-well white, medium binding microtiter plate (Greiner). Reaction mixtures were incubated for 1 hr at ambient temperature. Reactions were quenched by addition of 10 uL of […] AlphaScreen bead suspension containing 75 mM Hepes, pH 7.4, 300 mM NaCl, 120 mM EDTA, 0.3% BSA and 0.03% Tween-20. After 16 hr incubation at ambient temperature plates were read using an AlphaQuest reader (Perkin Elmer).
(In general: In Alpha technology, singlet oxygen from a donor bead excites a nearby acceptor bead.)

A further assay has as its target EGFR (Homo sapiens, UniProt P00533). Briefly: Kinase assay, EGFR (33P-ATP incorporation or luciferase-coupled ATP consumption). The assay is classed as biochemical. An outline of the steps: as §2
For the next assay, the target named is FGFR1 (Homo sapiens, UniProt P11362). Briefly: Kinase assay, FGFR1 (33P-ATP incorporation or luciferase-coupled ATP consumption). The format is biochemical. Summed up:
as §2

The next assay concerns the target IRK (Homo sapiens, UniProt P06213). Briefly: Kinase assay, IRK. The format is biochemical. The procedure: as §1
The target in the next assay is EphA2 (Homo sapiens, UniProt P29317). Briefly: Kinase assay, EphA2 (33P-ATP incorporation or luciferase-coupled ATP consumption). The assay is classed as biochemical. Summed up: as §2
For another assay, the target named is ALK (Homo sapiens, UniProt Q9UM73). The assay is described as follows: Kinase assay, ALK (33P-ATP incorporation or luciferase-coupled ATP consumption). The format is biochemical. How it is done: Kinase assays were performed by measurement of incorporation of γ-^33P ATP into immobilized myelin basic protein (MBP). […] Plates were washed 3× with 100 μl TBS. […] Compound dilutions were performed in DMSO and added to assay wells to a final DMSO concentration of 1%. Each data point was measured in duplicate, and at least two duplicate assays were performed for each individual compound determination. Enzyme was added to final concentrations of 10 nM or 20 nM, for example. A mixture of unlabeled ATP and γ-^33P ATP was added to start the reaction (2×10^6 cpm of γ-^33P ATP per well (3000 Ci/mmole) and either 10 μM or 30 μM unlabeled ATP, typically. The reactions were carried out for 1 hour at room temperature with shaking. Plates were washed 7× with TBS, followed by the addition of 50 μl/well scintillation fluid (Wallac). Plates were read using a Wallac Trilux counter. This is only one format of such assays, various other formats are possible, as known to one of ordinary skill in the art.
Tyrosine kinase activity is determined by 1) measurement of kinase-dependent ATP consumption by in the presence of a generic substrate such as, polyglutamic acid, tyrosine, 4:1 (pEY), by luciferase/luciferin-mediated chemiluminescence or; 2) incorporation of radioactive phosphate derived from ^33P-ATP into a generic substrate which has been adsorbed onto the well surface of polystyrene microtiter plates. Phosphorylated substrate products are quantified by scintillation spectrometry.
as §1

Sequence of FGFR1 (P11362 22-822, species assumed): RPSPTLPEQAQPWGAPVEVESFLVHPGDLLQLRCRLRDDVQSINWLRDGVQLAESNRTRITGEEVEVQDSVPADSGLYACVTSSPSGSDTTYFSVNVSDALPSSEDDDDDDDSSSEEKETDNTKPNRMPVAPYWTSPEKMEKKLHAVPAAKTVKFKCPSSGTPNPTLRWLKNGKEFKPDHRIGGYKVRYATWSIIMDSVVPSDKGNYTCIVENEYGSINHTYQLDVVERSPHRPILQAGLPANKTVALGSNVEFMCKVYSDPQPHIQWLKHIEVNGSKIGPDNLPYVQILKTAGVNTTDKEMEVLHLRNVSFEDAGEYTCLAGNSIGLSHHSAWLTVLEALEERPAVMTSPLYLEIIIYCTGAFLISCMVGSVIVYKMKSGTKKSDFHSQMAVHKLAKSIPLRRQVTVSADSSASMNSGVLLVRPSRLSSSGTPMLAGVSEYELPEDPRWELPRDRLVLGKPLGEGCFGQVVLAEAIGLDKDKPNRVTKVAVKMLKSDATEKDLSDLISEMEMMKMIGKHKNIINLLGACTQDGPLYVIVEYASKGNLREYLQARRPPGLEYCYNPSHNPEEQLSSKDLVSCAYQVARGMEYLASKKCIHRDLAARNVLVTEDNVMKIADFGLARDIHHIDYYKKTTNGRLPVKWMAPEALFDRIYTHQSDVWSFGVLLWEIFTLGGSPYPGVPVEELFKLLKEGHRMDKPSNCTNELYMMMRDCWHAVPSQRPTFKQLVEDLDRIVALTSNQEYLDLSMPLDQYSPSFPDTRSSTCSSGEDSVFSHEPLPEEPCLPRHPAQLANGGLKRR
Sequence of Fyn (P06241 whole entry, species assumed): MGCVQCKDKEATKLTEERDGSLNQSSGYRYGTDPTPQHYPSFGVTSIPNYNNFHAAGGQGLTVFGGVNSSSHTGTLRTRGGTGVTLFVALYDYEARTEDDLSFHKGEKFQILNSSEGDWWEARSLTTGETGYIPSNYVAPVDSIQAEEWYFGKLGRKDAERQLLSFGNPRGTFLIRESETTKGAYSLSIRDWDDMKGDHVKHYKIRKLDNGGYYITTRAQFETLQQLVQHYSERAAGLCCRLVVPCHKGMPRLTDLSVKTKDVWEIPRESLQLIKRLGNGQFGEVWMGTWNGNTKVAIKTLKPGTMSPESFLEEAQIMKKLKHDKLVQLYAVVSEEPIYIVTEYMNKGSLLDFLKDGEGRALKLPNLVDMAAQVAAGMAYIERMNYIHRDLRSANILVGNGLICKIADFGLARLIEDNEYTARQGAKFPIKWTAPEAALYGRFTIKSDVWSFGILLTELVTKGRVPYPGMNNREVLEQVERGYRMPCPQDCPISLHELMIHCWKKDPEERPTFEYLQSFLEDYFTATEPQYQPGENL
Sequence of IRK (P06213 28-1382): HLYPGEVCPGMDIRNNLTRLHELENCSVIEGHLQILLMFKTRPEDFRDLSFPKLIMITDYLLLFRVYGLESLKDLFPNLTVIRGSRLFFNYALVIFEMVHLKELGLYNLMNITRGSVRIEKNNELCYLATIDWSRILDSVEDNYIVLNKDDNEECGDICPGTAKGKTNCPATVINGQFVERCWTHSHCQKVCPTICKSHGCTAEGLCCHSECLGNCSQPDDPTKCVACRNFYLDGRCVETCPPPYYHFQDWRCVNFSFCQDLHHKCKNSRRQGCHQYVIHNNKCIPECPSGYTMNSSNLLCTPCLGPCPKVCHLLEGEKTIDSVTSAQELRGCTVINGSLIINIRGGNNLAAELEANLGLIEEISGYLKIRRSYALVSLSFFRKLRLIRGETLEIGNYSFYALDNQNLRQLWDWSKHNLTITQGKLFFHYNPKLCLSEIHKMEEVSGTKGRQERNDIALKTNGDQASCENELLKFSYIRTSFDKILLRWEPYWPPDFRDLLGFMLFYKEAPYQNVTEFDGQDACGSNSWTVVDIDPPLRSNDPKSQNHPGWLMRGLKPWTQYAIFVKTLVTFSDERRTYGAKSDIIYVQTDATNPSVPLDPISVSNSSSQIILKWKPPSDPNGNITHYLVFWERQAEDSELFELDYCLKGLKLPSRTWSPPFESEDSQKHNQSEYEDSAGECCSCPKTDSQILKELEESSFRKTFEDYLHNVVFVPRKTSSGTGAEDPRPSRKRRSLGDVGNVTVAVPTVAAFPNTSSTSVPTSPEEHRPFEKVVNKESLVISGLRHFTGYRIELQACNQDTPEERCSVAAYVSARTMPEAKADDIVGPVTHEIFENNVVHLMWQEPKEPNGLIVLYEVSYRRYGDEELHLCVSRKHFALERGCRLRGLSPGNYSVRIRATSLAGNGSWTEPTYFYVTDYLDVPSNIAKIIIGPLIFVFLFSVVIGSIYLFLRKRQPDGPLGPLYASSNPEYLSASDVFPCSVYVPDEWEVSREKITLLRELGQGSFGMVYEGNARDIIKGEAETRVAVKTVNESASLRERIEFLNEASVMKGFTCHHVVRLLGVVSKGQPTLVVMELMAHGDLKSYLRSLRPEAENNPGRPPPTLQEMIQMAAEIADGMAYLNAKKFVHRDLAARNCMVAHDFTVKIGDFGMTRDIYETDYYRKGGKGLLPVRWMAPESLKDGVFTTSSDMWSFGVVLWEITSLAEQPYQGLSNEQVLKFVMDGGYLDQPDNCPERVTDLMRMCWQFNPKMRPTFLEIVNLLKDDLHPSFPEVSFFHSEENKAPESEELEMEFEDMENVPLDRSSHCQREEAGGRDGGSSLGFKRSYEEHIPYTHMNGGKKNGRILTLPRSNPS
T1 sequence (P35968 807-1356): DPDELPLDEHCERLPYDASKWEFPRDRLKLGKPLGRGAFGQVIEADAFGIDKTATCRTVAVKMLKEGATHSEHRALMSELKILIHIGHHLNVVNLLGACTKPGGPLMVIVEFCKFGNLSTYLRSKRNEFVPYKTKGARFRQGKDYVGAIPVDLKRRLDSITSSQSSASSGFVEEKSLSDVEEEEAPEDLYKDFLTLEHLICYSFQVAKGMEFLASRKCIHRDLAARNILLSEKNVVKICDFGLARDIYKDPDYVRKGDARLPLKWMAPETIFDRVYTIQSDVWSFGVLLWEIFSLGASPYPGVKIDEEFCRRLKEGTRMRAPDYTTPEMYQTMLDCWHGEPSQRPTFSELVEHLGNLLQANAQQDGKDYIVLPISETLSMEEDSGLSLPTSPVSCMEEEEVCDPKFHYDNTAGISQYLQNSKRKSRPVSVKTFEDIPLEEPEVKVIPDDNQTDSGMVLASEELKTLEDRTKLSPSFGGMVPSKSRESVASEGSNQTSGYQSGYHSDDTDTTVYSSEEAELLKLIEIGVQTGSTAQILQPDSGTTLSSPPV
Sequence of EphA2 (P29317 24-976, species assumed): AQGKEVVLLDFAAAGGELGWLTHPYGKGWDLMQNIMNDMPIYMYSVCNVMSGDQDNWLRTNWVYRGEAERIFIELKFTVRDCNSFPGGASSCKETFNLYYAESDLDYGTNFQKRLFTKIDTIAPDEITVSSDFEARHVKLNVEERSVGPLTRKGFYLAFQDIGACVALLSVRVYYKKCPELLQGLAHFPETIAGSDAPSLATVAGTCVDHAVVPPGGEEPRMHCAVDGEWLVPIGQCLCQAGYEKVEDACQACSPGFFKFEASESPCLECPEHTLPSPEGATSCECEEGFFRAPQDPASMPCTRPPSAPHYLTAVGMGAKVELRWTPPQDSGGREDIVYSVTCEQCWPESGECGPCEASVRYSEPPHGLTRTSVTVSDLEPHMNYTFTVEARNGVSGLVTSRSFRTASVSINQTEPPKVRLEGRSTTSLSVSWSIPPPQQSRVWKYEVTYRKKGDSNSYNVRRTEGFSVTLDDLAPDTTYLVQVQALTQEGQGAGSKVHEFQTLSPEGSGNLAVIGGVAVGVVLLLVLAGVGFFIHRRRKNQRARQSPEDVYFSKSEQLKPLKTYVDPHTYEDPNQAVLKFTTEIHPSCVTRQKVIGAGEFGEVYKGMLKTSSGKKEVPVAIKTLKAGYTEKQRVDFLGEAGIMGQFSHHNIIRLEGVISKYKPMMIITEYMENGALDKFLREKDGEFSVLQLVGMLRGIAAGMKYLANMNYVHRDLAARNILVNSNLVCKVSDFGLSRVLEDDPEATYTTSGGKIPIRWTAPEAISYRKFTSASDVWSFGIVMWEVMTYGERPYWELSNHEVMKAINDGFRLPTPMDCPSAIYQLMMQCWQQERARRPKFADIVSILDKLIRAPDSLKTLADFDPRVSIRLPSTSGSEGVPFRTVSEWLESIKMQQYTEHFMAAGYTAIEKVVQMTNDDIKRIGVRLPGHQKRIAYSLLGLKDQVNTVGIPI

The term IC50 denotes the midpoint of a concentration-inhibition curve. With `CCN1CCC(Nc2ccc3c(c2)/C(=C(\c2ccc(C)cc2)c2ncc[nH]2)C(=O)N3)CC1` [Entry 13, (3Z)-5-[(1-ethylpiperidin-4-yl)amino]-3-[1H-imidazol-2-yl(4-methylphenyl)methylidene]-1,3-dihydro-2H-indol-2-one], the IC50 against Fyn is below 50 nM; on Flt-1, 50 to 500 nM; on PDGFR alpha, below 50 nM; in assay [1] it was below 50 nM; against c-Kit kinase, 50 to 500 nM; at EGFR, 50 to 500 nM. The IC50 at FGFR1 is below 50 nM; at IRK, 500 to 5000 nM; on EphA2, 50 to 500 nM.
Consider `COCCN1CCC(Nc2ccc3c(c2)/C(=C(\c2cccc(F)c2)c2ncc[nH]2)C(=O)N3)CC1` [Entry 41, (3Z)-3-[(3-fluorophenyl)(1H-imidazol-2-yl)methylidene]-5-({1-[2-(methyloxy)ethyl]piperidin-4-yl}amino)-1,3-dihydro-2H-indol-2-one], for which the IC50 against Fyn is below 50 nM; on Flt-1, 50 to 500 nM; on PDGFR alpha, below 50 nM; in assay [1] it was below 50 nM; on c-Kit kinase, 50 to 500 nM; on EGFR, 50 to 500 nM. Besides, the half-maximal inhibitory concentration (IC50) was below 50 nM against FGFR1, 500 to 5000 nM on IRK and 500 to 5000 nM against EphA2.
Take `CCN1CCC(Nc2ccc3c(c2)/C(=C(\c2ccc(C(F)(F)F)c(F)c2)c2ncc[nH]2)C(=O)N3)CC1` [Entry 65, (3Z)-5-[(1-ethylpiperidin-4-yl)amino]-3-[[3-fluoro-4-(trifluoromethyl)phenyl](1H-imidazol-2-yl)methylidene]-1,3-dihydro-2H-indol-2-one]: the IC50 was below 50 nM at Fyn; below 50 nM on PDGFR alpha; below 50 nM in [1]; 50 to 500 nM against c-Kit kinase; 50 to 500 nM at EGFR; below 50 nM on FGFR1. Further, the IC50 at IRK is above 5000 nM; against EphA2, 500 to 5000 nM.
As for `CCN1CCC(Nc2ccc3c(c2)/C(=C(/c2ncc[nH]2)c2ccccc2F)C(=O)N3)CC1` [Entry 107, (3Z)-5-[(1-ethylpiperidin-4-yl)amino]-3-[(2-fluorophenyl)(1H-imidazol-2-yl)methylidene]-1,3-dihydro-2H-indol-2-one], the IC50 against Fyn is below 50 nM; at PDGFR alpha it was below 50 nM; in assay [1], below 50 nM; against c-Kit kinase, below 50 nM; against EGFR, 50 to 500 nM; on FGFR1 it was below 50 nM. The IC50 on IRK and at EphA2 was 500 to 5000 nM throughout.
Take `CCN1CCC(Nc2ccc3c(c2)/C(=C(/c2ncc[nH]2)c2ccc(F)cc2F)C(=O)N3)CC1` [Entry 112, (3Z)-3-[(2,4-difluorophenyl)(1H-imidazol-2-yl)methylidene]-5-[(1-ethylpiperidin-4-yl)amino]-1,3-dihydro-2H-indol-2-one]: the IC50 was below 50 nM on Fyn; below 50 nM on PDGFR alpha; below 50 nM in [1]; below 50 nM against c-Kit kinase; 50 to 500 nM on EGFR; below 50 nM against FGFR1. The IC50 at IRK and against EphA2 was 500 to 5000 nM throughout.
`CCN1CCC(Nc2ccc3c(c2)/C(=C(/c2ncc[nH]2)c2ccc(C(F)(F)F)cc2F)C(=O)N3)CC1` [Entry 100, (3Z)-5-[(1-ethylpiperidin-4-yl)amino]-3-[[2-fluoro-4-(trifluoromethyl)phenyl] (1H-imidazol-2-yl)methylidene]-1,3-dihydro-2H-indol-2-one]: the IC50 was below 50 nM against Fyn; below 50 nM on PDGFR alpha; below 50 nM in assay [1]; below 50 nM on c-Kit kinase; 50 to 500 nM on EGFR; below 50 nM against FGFR1. For the same compound, the IC50 at IRK and against EphA2 was 500 to 5000 nM each time.
Consider `CCN1CCC(Nc2ccc3c(c2)/C(=C(/c2nc(C)c[nH]2)c2ccc(C(F)(F)F)cc2F)C(=O)N3)CC1` [Entry 108, (3Z)-5-[(1-ethylpiperidin-4-yl)amino]-3-[[2-fluoro-4-(trifluoromethyl)phenyl] (4-methyl-1H-imidazol-2-yl)methylidene]-1,3-dihydro-2H-indol-2-one], for which the IC50 on Fyn was below 50 nM; at PDGFR alpha it was below 50 nM; in assay [1] it was below 50 nM; against c-Kit kinase it was below 50 nM; against EGFR, 50 to 500 nM; against FGFR1 it was below 50 nM. Moreover, the IC50 against IRK and against EphA2 was 500 to 5000 nM throughout.
As for `CCN1CCC(Nc2ccc3c(c2)/C(=C(\c2ccc(F)c(F)c2)c2ncc[nH]2)C(=O)N3)CC1` [Entry 54, (3Z)-3-[(3,4-difluorophenyl)(1H-imidazol-2-yl)methylidene]-5-[(1-ethylpiperidin-4-yl)amino]-1,3-dihydro-2H-indol-2-one], the IC50 is below 50 nM on Fyn; below 50 nM on PDGFR alpha; below 50 nM in [1]; 50 to 500 nM against c-Kit kinase; 500 to 5000 nM against EGFR; below 50 nM against FGFR1. The 50% inhibitory concentration (IC50) is above 5000 nM against IRK and 500 to 5000 nM on EphA2.
As for `COCCN1CCC(Nc2ccc3c(c2)/C(=C(\c2ccc(C)c(F)c2)c2nc(C)c[nH]2)C(=O)N3)CC1` [Entry 97], the IC50 on Fyn is below 50 nM; in assay [1] it was below 50 nM; at ALK, below 50 nM; against EGFR it was below 50 nM; at FGFR1, below 50 nM; against IRK it was 500 to 5000 nM. On EphA2, this compound displayed an IC50 of 500 to 5000 nM.
For the compound `CCN1CCC(Nc2ccc3c(c2)/C(=C(\c2ccc(F)c(F)c2)c2nc(C)c[nH]2)C(=O)N3)CC1` [Entry 104, (3Z)-3-[(3,4-difluorophenyl)(4-methyl-1H-imidazol-2-yl)methylidene]-5-[(1-ethylpiperidin-4-yl)amino]-1,3-dihydro-2H-indol-2-one], the IC50 against Fyn was below 50 nM; on PDGFR alpha it was below 50 nM; in assay [1] it was below 50 nM; on c-Kit kinase it was 50 to 500 nM; on EGFR it was below 50 nM; against FGFR1, below 50 nM. Also, the IC50 was above 5000 nM at IRK and 500 to 5000 nM at EphA2.
Take `CCN1CCC(Nc2ccc3c(c2)/C(=C(\c2cccc(C(F)(F)F)c2)c2ncc[nH]2)C(=O)N3)CC1` [Entry 114, (3Z)-3-[(3-trifluoromethylphenyl)(1H-imidazol-2-yl)methylidene]-5-[(1-ethylpiperidin-4-yl)amino]-1,3-dihydro-2H-indol-2-one]: the IC50 was 50 to 500 nM against Fyn; below 50 nM on PDGFR alpha; below 50 nM in assay [1]; 50 to 500 nM against c-Kit kinase; 500 to 5000 nM against EGFR; 50 to 500 nM against FGFR1. Further, the results for the IC50 against IRK and against EphA2 were above 5000 nM and 500 to 5000 nM, respectively.
On to `CCN1CCC(Nc2ccc3c(c2)/C(=C(\c2ccc(C(F)(F)F)cc2)c2nc(C)c[nH]2)C(=O)N3)CC1` [Entry 101], for which the 50% inhibitory concentration (IC50) was below 50 nM at Fyn; below 50 nM at PDGFR alpha; below 50 nM in assay [1]; 50 to 500 nM at c-Kit kinase; 50 to 500 nM against EGFR; below 50 nM against FGFR1. Further, the IC50 on IRK and against EphA2 was 500 to 5000 nM each time.
